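GI50 marks 50% less growth. Definition used: TGI = concentration required for complete inhibition of growth.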
Tests used:
Assay in all cases: NCI anticancer screen, dose series, 384-well format
[1] = tested on: UACC-257 melanoma
[2] = tested on: MDA-MB-231 breast
[3] = tested on: UACC-62 melanoma
[4] = tested on: MDA-MB-468 breast
[5] = tested on: HT29 colon
[6] = tested on: BT-549 breast
[7] = tested on: HCC-2998 colon
[8] = tested on: RPMI-8226 leukemia
[9] = tested on: SK-MEL-5 melanoma
[10] = tested on: NCI-H226 lung
[11] = tested on: OVCAR-3 ovarian
[12] = tested on: OVCAR-5 ovarian
[13] = tested on: LOX IMVI melanoma
[14] = tested on: OVCAR-8 ovarian
[15] = tested on: T-47D breast
[16] = tested on: A549 NSCLC
[17] = tested on: A498 renal
[18] = tested on: SR leukemia
[19] = tested on: HOP-62 NSCLC
[20] = tested on: OVCAR-4 ovarian
[21] = tested on: SF-295 CNS
[22] = tested on: MCF7 breast
[23] = tested on: MALME-3M melanoma
[24] = tested on: PC-3 prostate
[25] = tested on: SK-OV-3 ovarian
[26] = tested on: ACHN renal
[27] = tested on: M14 melanoma
[28] = tested on: SK-MEL-28 melanoma
[29] = tested on: MOLT-4 leukemia

C[C@@H]1COCCN1c1nc(-c2cnc(N)cc2C(F)F)nc(N2[C@H](C)COC[C@@H]2C)n1
GI50 [1]: 316 nM | TGI [1]: 1560 nM | GI50 [2]: 61.4 nM | TGI [2]: 14400 nM | GI50 [3]: 114 nM | TGI [3]: 899 nM | GI50 [4]: 54 nM | TGI [4]: 236 nM | GI50 [5]: 281 nM | TGI [5]: 2440 nM | GI50 [6]: 97.7 nM | TGI [6]: 1140 nM | GI50 [7]: 104 nM | TGI [7]: 1610 nM | GI50 [8]: 16.6 nM | TGI [8]: 48.5 nM | GI50 [9]: 53.8 nM | TGI [9]: 312 nM | GI50 [10]: 75.9 nM | TGI [10]: 656 nM | GI50 [11]: 119 nM | TGI [11]: 10400 nM | GI50 [12]: 141 nM | TGI [12]: 2280 nM | GI50 [13]: 99 nM | TGI [13]: 1100 nM | GI50 [14]: 165 nM | TGI [14]: 11600 nM | GI50 [15]: 18.7 nM | TGI [15]: 156 nM | GI50 [16]: 52.9 nM | TGI [16]: 3890 nM | GI50 [17]: 23.1 nM | TGI [17]: 407 nM | GI50 [18]: 32.1 nM | TGI [18]: 131 nM | GI50 [19]: 145 nM | TGI [19]: 4220 nM | GI50 [20]: 68.3 nM | TGI [20]: 376 nM | GI50 [21]: 41.4 nM | TGI [21]: 369 nM | GI50 [22]: 36.6 nM | TGI [22]: 1360 nM | GI50 [23]: 27.1 nM | TGI [23]: 218 nM | GI50 [24]: 84.5 nM | TGI [24]: 1960 nM | GI50 [25]: 53.3 nM | TGI [25]: 595 nM | GI50 [26]: 81.2 nM | TGI [26]: 2550 nM | GI50 [27]: 117 nM | TGI [27]: 1490 nM | GI50 [28]: 121 nM | TGI [28]: 1170 nM | GI50 [29]: 90.3 nM

Source: PubChem BioAssay (NCI)
